Assay results published in ChEMBL document CHEMBL1275472, “Cell-penetrating peptide TP10 shows broad-spectrum activity against both Plasmodium falciparum and Trypanosoma brucei brucei” (Antimicrob Agents Chemother, 2008).
The source made the active and inactive calls. The rule behind the calls is not given here.

Experiments:
Plasmodium falciparum [1] = assay: Antiplasmodial activity against Plasmodium falciparum 3D7 clone infected in Anopheles gambiae Keele vector assessed as prevalence of […] infection at 30 uM; assay type: functional
Plasmodium falciparum [2] = assay: Antiplasmodial activity against asynchronous blood-stage Plasmodium falciparum HB3 infected in human RBC at 30 uM after 24 hrs by Malstat assay; assay type: functional, organism-based
Plasmodium falciparum [3] = assay: Antiplasmodial activity against asynchronous blood-stage Plasmodium falciparum HB3 infected in human RBC at 30 uM after 24 hrs by microscopy; assay type: functional, organism-based
Plasmodium falciparum [4] = assay: Antiplasmodial activity against asynchronous blood-stage Plasmodium falciparum HB3 infected in human RBC at 30 uM after 18 hrs by Malstat assay; assay type: functional, organism-based
Plasmodium falciparum [5] = assay: Antiplasmodial activity against asynchronous blood-stage Plasmodium falciparum HB3 infected in human RBC at 30 uM after 15 hrs by Malstat assay; assay type: functional, organism-based
[6] = test system: Trypanosoma brucei brucei; assay: […] activity against bloodstream form of Trypanosoma brucei 427; assay type: functional, organism-based
Homo sapiens = species on record: Homo sapiens; assay: Toxicity in human RBC assessed as induction of hemolysis at 1 to 30 uM
Plasmodium falciparum [7] = assay: Antiplasmodial activity against asynchronous blood-stage Plasmodium falciparum HB3 infected in human RBC at 30 uM after 21 hrs by Malstat assay; assay type: functional, organism-based
[8] = test system: Trypanosoma brucei brucei; assay: Trypanocidal activity against bloodstream form of Trypanosoma brucei brucei 427 assessed as lysis half-time at 5.4 uM by alamar blue assay; assay type: functional, organism-based

Compound: H-LLIILRRRIRKQAHAHSK-OH
- Activity (Plasmodium falciparum [1]): 44%
- Activity (Plasmodium falciparum [2]): inactive
- Activity (Plasmodium falciparum [3]): inactive

Compound: CC[C@H](C)[C@H](NC(=O)[C@H](CCCCN)NC(=O)[C@H](CCCCN)NC(=O)[C@H](C)NC(=O)[C@H](CC(C)C)NC(=O)[C@H](C)NC(=O)[C@H](C)NC(=O)[C@H](CC(C)C)NC(=O)[C@H](C)NC(=O)[C@H](CCCCN)NC(=O)[C@H](CC(C)C)NC(=O)[C@H](CC(N)=O)NC(=O)[C@@H](NC(=O)[C@H](CCCCN)NC(=O)CNC(=O)[C@H](CC(C)C)NC(=O)[C@H](CC(C)C)NC(=O)[C@H](Cc1ccc(O)cc1)NC(=O)CNC(=O)[C@H](C)N)[C@@H](C)CC)C(=O)N[C@@H](CC(C)C)C(=O)O
- Activity (Plasmodium falciparum [4]): Active
- Activity (Plasmodium falciparum [5]): Active
- IC50 [6]: 2700 nM
- Activity (Plasmodium falciparum [1]): 30%
- Activity (Plasmodium falciparum [2]): Active
- Activity (Homo sapiens): Non-toxic
- Activity (Plasmodium falciparum [3]): Active
- Activity (Plasmodium falciparum [7]): Active
- Activity [8]: Active
